Data taken from ChEMBL document CHEMBL1146660 (Bioorg Med Chem Lett, 2004).

What was measured:
[1] = target: T1, M-phase inducer phosphatase 1 (Homo sapiens, UniProt P30304); experiment: Concentration required to inhibit human Cell division cycle 25A activity; Value ranges from […] to […]
T1 sequence (P30304 whole entry): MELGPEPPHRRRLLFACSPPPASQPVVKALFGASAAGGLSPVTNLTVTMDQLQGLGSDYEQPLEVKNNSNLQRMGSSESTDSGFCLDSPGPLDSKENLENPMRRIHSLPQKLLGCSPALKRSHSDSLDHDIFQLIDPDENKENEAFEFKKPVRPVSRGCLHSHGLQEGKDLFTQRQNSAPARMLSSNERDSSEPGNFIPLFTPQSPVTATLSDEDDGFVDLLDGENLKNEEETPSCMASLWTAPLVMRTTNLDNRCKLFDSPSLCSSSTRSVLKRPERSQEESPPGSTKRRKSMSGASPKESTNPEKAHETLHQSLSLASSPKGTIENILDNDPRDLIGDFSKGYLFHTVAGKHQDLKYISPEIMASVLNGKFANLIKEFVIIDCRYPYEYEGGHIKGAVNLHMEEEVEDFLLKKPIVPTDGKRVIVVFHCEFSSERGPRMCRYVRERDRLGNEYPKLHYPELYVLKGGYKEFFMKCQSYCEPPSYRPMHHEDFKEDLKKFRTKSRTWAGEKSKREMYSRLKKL

[2] = target: T2, M-phase inducer phosphatase 2 (Homo sapiens, UniProt P30305); experiment: Concentration required to inhibit human Cell division cycle 25B activity
T2 sequence (P30305 whole entry): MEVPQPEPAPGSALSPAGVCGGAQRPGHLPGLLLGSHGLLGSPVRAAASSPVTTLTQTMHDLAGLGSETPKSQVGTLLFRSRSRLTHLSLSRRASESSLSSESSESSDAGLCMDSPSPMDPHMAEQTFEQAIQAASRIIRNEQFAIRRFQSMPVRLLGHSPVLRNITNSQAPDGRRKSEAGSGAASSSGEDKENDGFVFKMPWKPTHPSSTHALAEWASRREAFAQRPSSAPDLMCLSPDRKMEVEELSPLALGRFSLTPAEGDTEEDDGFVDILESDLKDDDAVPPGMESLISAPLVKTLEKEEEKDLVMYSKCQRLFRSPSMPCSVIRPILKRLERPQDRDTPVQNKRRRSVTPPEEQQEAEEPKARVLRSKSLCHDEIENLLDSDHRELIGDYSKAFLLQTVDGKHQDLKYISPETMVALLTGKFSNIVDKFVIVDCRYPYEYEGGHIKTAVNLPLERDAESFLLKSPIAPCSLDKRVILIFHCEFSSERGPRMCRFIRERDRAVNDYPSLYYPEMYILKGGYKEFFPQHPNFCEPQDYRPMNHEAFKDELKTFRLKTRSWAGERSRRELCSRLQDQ

[3] = target: T1, M-phase inducer phosphatase 1; experiment: Concentration required to inhibit human Cell division cycle 25A activity

IC50 [2] [µM] | IC50 [3] [µM] | SMILES | IC50 [1] [nM]
– | – | C=C1CC[C@H](O)C/C1=C/C=C1\CCC[C@@]2(C)C1CC[C@@H]2[C@H](C)CCCC(C)C (stereo partly drawn) | 890
8 | 5.5 | CC(C)CCC[C@@H](C)[C@H]1CCC2/C(=C/C(=O)O)CCC[C@@]21C (stereo partly drawn) | –
